Columns and labels:
mice = conditions: reported, Non-Patent Literature 5; cited from earlier work
birds = conditions: reported, Non-Patent Literature 5; cited from earlier work
C57/BL6 male mice = experiment: Freezing test: innate fear (freezing) behavior of mice exposed to odor gas; assay type: in vivo, mouse; conditions: for freezing behavior-inducing activity (Freezing time): 10 ppm gas, 20 min observation, n = 6
Description: A 10 ppm gas was generated for 9 kinds of available odor molecules from those reported to have a repellent effect on birds by using a gas permeator (manufactured by GASTEC, PD-1B-2). Holes (4.5 cm and 12 cm high) were respectively drilled on opposite sides of a sealed test cage (17×17×18.5 cm), a tube for discharging the gas generated by the permeator was connected to the lower hole, the gas was introduced, and the higher hole allowed the air in the test cage to be released. After the air in the test cage was completely replaced by the odor gas, C57/BL6 male mice aged about 2 months to 6 months were put into the test cage (one mouse per cage), and the freezing behavior was analyzed by a freezing behavior automatic analyzer (manufactured by Actimetrics, Freeze Frame2) for 20 min. The time during which the mouse was motionless for 2 seconds or longer was measured as a freezing behavior, and the duration of freezing behavior within 20 minutes of observation time (Freezing time) was shown in %. Each experiment was performed with n = 6.
A constant concentration of the gas of the following various compounds was generated by a gas permeator (manufactured by GASTEC, PD-1B-2). When the concentration is not particularly indicated, an odor gas was generated at a concentration of 10 ppm. Holes (4.5 cm and 12 cm high) were respectively drilled on opposite sides of a sealed test cage (17×17×18.5 cm), a tube for discharging the gas generated by the permeator was connected to the lower hole, the gas was introduced, and the higher hole allowed the air in the test cage to be released. After the air in the test cage was completely replaced by the odor gas, C57/BL6 male mice aged about 2 months to 6 months were put into the test cage (one mouse per cage), and the freezing behavior was analyzed by a freezing behavior automatic analyzer (manufactured by Actimetrics, Freeze Frame2) for 20 min. The time during which the mouse was motionless for 2 seconds or longer was measured as a freezing behavior, and the duration of freezing behavior within 20 minutes of observation time (Freezing time) was shown in %. Each experiment was performed with n = 6. […]
A 10 ppm gas of thiophene and 2-acetylthiophene was generated using a gas permeator (manufactured by GASTEC, PD-1B-2). […] After the air in the test cage was completely replaced by the odor gas, C57/BL6 male mice aged about 2 months to 6 months were put into the test cage (one mouse per cage), and the freezing behavior was analyzed by a freezing behavior automatic analyzer (manufactured by Actimetrics, Freeze Frame2) for 20 min. The time during which the mouse was motionless for 2 seconds or longer was measured as a freezing behavior, and the duration of freezing behavior within 20 minutes of observation time (Freezing time) was shown in %. […]

SMILES	activity to induce freezing behavior in mice (mice)	repellent activity in birds (birds)	freezing behavior-inducing activity (Freezing time) (C57/BL6 male mice; Example 1, FIG. 1)	freezing behavior-inducing activity (Freezing time) (C57/BL6 male mice; Example 3, FIG. 3)	significant difference from no odor, student's t-test (C57/BL6 male mice; Example 3, freezing time versus no odor)
Cc1csc(C)n1 [2,4-dimethyl-thiazole]	has an activity to induce freezing behavior	does not show repellent activity			
CC(=O)c1cccs1 [2-acetylthiophene]			induced a freezing behavior	very strong freezing behavior	
c1ccsc1 [thiophene]				very low	no significant difference
